Results published in ChEMBL document CHEMBL3044985, “Novel antitubercular diallyl/dibenzylthiosemicarbazones endowed with high activity toward multi-drug-resistant tuberculosis” (Med Chem Res, 2012).
Values after ≈ are worked out from the molar mass of the structure shown.

Experiments:
[1] = Cytotoxicity against Chlorocebus aethiops (African green monkey) Vero cells assessed as cell viability after 72 hr by MTT assay; assay type: cell-based; details: chlorocebus sabaeus
[2] = tested on: Mycobacterium tuberculosis; test: Antitubercular activity against Mycobacterium tuberculosis H37Rv by NCCLS agar dilution method; assay type: functional
[3] = Selectivity index, ratio of CC50 for african green monkey Vero cells to MIC for Mycobacterium tuberculosis H37Rv; assay type: toxicity, cell-based; details: read-out: Selectivity Index
[4] = tested on: Mycobacterium tuberculosis; test: Ratio of ethambutol MIC to compound MIC for Mycobacterium tuberculosis H37Rv; assay type: functional
[5] = tested on: Mycobacterium tuberculosis; test: Ratio of isoniazid MIC to compound MIC for Mycobacterium tuberculosis H37Rv; assay type: functional
[6] = tested on: Mycobacterium tuberculosis; test: Ratio of ofloxacin MIC to compound MIC for Mycobacterium tuberculosis H37Rv; assay type: functional

Compound	CC50 at 72 h [1] [µM]	MIC [2] [µM]	other results
S=C(NN=C(c1ccccc1)c1ccccc1)N(Cc1ccccc1)Cc1ccccc1	143	3.58 (≈ 1.56 µg/mL)	
C=CCN(CC=C)C(=S)N/N=C(/C)CC		111 (≈ 25 µg/mL)	
CC/C(C)=N\NC(=S)N(Cc1ccccc1)Cc1ccccc1		76.8 (≈ 25 µg/mL)	
O=[N+]([O-])c1ccc(/C=N\NC(=S)N(Cc2ccccc2)Cc2ccccc2)cc1	< 155	0.98 (≈ 0.396 µg/mL)	
C=CCN(CC=C)C(=S)N/N=C\c1ccc(Cl)cc1	213	5.3 (≈ 1.56 µg/mL)	
S=C(N/N=C\c1ccc(Cl)cc1)N(Cc1ccccc1)Cc1ccccc1	159	1.98 (≈ 0.78 µg/mL)	
C=CCN(CC=C)C(=S)N/N=C\c1ccccc1C	> 229	22.9 (≈ 6.25 µg/mL)	
Cc1ccccc1/C=N\NC(=S)N(Cc1ccccc1)Cc1ccccc1	167	8.38 (≈ 3.13 µg/mL)	
C=CCN(CC=C)C(=S)N/N=C\c1ccccc1O		45.4 (≈ 12.5 µg/mL)	
Oc1ccccc1/C=N\NC(=S)N(Cc1ccccc1)Cc1ccccc1	166	8.33 (≈ 3.13 µg/mL)	
C=CCN(CC=C)C(=S)N/N=C\c1ccc([N+](=O)[O-])o1	< 212	2.65 (≈ 0.78 µg/mL)	
O=[N+]([O-])c1ccc(/C=N\NC(=S)N(Cc2ccccc2)Cc2ccccc2)o1	158	0.5 (≈ 0.197 µg/mL)	selectivity ratio [3]: > 316; Ratio [4]: 9.4; Ratio [5]: 1.3; Ratio [6]: 4.2
C=CCN(CC=C)C(=S)N/N=C(/C)c1ccccc1	229	22.9 (≈ 6.25 µg/mL)	
C/C(=N/NC(=S)N(Cc1ccccc1)Cc1ccccc1)c1ccccc1	167	16.7 (≈ 6.25 µg/mL)	
C=CCN(CC=C)C(=S)N/N=C(/C)c1ccccc1O	216	21.6 (≈ 6.25 µg/mL)	
C/C(=N/NC(=S)N(Cc1ccccc1)Cc1ccccc1)c1ccccc1O	160	8.03 (≈ 3.13 µg/mL)	
C=CCN(CC=C)C(=S)N/N=C(/C)c1ccc(O)cc1	216	21.6 (≈ 6.25 µg/mL)	

Compound	CC50 at 72 h [1] [µM]	MIC [2] [µM]	other results
C/C(=N/NC(=S)N(Cc1ccccc1)Cc1ccccc1)c1ccc(O)cc1	160	16.1 (≈ 6.26 µg/mL)	
C=CCN(CC=C)C(=S)N/N=C(/C)c1ccc(N)cc1		43.3 (≈ 12.5 µg/mL)	
C/C(=N/NC(=S)N(Cc1ccccc1)Cc1ccccc1)c1ccc(N)cc1	161	16.1 (≈ 6.25 µg/mL)	
C=CCN(CC=C)C(=S)N/N=C(/C)c1ccc([N+](=O)[O-])cc1	< 196	9.83 (≈ 3.13 µg/mL)	
C/C(=N/NC(=S)N(Cc1ccccc1)Cc1ccccc1)c1ccc([N+](=O)[O-])cc1	< 149	3.72 (≈ 1.56 µg/mL)	
C=CCN(CC=C)C(=S)N/N=C(/C)c1ccc(F)cc1	214	10.7 (≈ 3.13 µg/mL)	
C/C(=N/NC(=S)N(Cc1ccccc1)Cc1ccccc1)c1ccc(F)cc1	160	7.99 (≈ 3.13 µg/mL)	
C=CCN(CC=C)C(=S)NN=C(c1ccccc1)c1ccccc1	186	9.33 (≈ 3.13 µg/mL)	
C=CCN(CC=C)C(=S)N/N=C\c1ccccc1		48.2 (≈ 12.5 µg/mL)	
S=C(N/N=C\c1ccccc1)N(Cc1ccccc1)Cc1ccccc1	174	17.4 (≈ 6.26 µg/mL)	
C=CCN(CC=C)C(=S)N/N=C\c1ccccc1[N+](=O)[O-]	205	5.12 (≈ 1.56 µg/mL)	
O=[N+]([O-])c1ccccc1/C=N\NC(=S)N(Cc1ccccc1)Cc1ccccc1	< 155	3.85 (≈ 1.56 µg/mL)	
C=CCN(CC=C)C(=S)N/N=C\c1ccc([N+](=O)[O-])cc1	< 205	2.56 (≈ 0.779 µg/mL)	
CC[C@@H](CO)NCCN[C@@H](CC)CO [ETHAMBUTOL]	> 188	4.71 (≈ 0.962 µg/mL)	
NNC(=O)c1ccncc1 [ISONIAZID]	> 456	0.66 (≈ 0.0905 µg/mL)	
CC1COc2c(N3CCN(C)CC3)c(F)cc3c(=O)c(C(=O)O)cn1c23 (configuration not stated) [OFLOXACIN]	> 155	2.13 (≈ 0.77 µg/mL)	
CO[C@H]1/C=C/O[C@@]2(C)Oc3c(C)c(O)c4c(O)c(c(/C=N/N5CCN(C)CC5)c(O)c4c3C2=O)NC(=O)/C(C)=C\C=C\[C@H](C)[C@H](O)[C@@H](C)[C@@H](O)[C@@H](C)[C@H](OC(C)=O)[C@@H]1C [RIFAMPIN]	> 75.9	0.23 (≈ 0.189 µg/mL)	
